Reference: patent US20160354359A1, “C[…]-[…] A NET INHIBITOR FOR ADM[…] A BRAIN-DEAD, HEART-BEATING POTENTIAL ORGAN DONOR” (VIVOLINE MEDICAL AB, priority 2008, published 2016)

Experiments:
alpha-1 = assay: Potency as replacement of noradrenaline (alpha-1-agonist)
Source text: In some embodiments, the adrenaline and/or noradrenaline may be partly or entirely replaced by an equivalent substance. For example, phenylephrine is an alpha-1-agonist and may replace noradrenaline.

blood pressure = settings: in vivo; cited from earlier work
brain-dead body of a pig [1] = assay: Experiment 2: infusion of desipramine solution with adrenaline and noradrenaline, blood pressure
Experimental: In addition 1 mg of adrenaline and 1 mg of noradrenaline was included in the solution.

[2] = in vivo; cited from earlier work
[3] = target: NET (norepinephrine transporter) (Homo sapiens, UniProt P23975); settings: cited from earlier work
brain-dead body of a pig [4] = settings: adrenaline and noradrenaline at constant 0.4 ml/hour
Experimental: In this experiment, adrenaline and noradrenaline was added at a constant rate of 0.4 ml/hour.

brain-dead pigs = assay: More than 20 experiments with pigs using cocaine in combination with adrenaline and noradrenaline, blood pressure over 24 hours; type: in vivo, pig; settings: from initiation of the intervention and over 24 hours
Source text: The inventor has performed more than 20 experiments with pigs and using cocaine in combination with adrenaline and noradrenaline.

[5] = tested on: brain-dead, heart-beating, respirated donor; settings: blood circulation
Experimental: In order to test this hypothesis, other NET inhibitors were tested, such as desipramine and imipramine, which both are known to be NET inhibitors.

Chain of NET (norepinephrine transporter) (P23975 whole entry, species assumed): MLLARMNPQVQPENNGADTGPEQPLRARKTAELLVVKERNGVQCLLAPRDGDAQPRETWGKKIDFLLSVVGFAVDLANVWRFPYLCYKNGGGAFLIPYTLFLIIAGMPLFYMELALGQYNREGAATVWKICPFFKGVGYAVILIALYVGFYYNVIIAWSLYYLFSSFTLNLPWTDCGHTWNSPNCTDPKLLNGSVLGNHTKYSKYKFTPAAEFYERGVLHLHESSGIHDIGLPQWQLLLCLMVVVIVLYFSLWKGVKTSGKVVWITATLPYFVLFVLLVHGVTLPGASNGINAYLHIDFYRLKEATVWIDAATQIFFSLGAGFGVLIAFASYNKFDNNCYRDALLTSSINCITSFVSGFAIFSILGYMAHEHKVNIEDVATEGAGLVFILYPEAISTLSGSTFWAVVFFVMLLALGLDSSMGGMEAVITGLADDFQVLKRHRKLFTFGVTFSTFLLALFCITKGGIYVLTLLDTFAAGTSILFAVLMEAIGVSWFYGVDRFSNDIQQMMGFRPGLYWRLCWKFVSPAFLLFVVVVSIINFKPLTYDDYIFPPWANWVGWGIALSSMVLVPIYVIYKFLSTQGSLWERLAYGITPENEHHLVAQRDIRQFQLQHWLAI

## CNC[C@H](O)c1cccc(O)c1 [phenylephrine]
alpha-1
  times less potent as noradrenaline: about 5 times

## CCN(CC)CC(=O)Nc1c(C)cccc1C [Lidocaine]
Blood pressure
  effect of infusion on blood pressure: vasodilatation and a lowering of the blood pressure

## CNCCCN1c2ccccc2CCc2ccccc21 [desipramine, Desipramine]
brain-dead body of a pig [1]; 3 mg desipramine, 1 mg adrenaline, 1 mg noradrenaline in 50 ml, 1.7 then 3.2 ml/hour, from a mean pressure of about 40 mmHg
  mean pressure reached on infusion: 80 mmHg
brain-dead body of a pig [1]; infusion decreased to 2.5 then 1.7 ml/hour, never decreased further
  blood pressure after infusion rate was decreased: about 60 mmHg
[2]
  half-life time: 30 h

## NC(=O)CC[C@@H]1NC(=O)[C@H](Cc2ccccc2)NC(=O)[C@H](Cc2ccc(O)cc2)NC(=O)[C@@H](N)CSSC[C@@H](C(=O)N2CCC[C@H]2C(=O)N[C@@H](CCCN=C(N)N)C(=O)NCC(N)=O)NC(=O)[C@H](CC(N)=O)NC1=O [ADH, vasopressin]
[2]
  half-life-time: about 15 minutes

## CNCCCC1c2ccccc2C=Cc2ccccc21 [Protriptylin, Protriptyline]
[3]
  potency among typical NET inhibitors: highest

## CN(C)CCCN1c2ccccc2CCc2ccccc21 [imipramine, Imipramine]
brain-dead body of a pig [4]; bolus at 24.5 hours, from about 80 mmHg
  blood pressure reached after bolus: about 100 mmHg

## COC(=O)[C@H]1[C@@H](OC(=O)c2ccccc2)C[C@@H]2CC[C@H]1N2C [cocaine, benzoylmethyl ecgonine]
brain-dead pigs
  blood pressure maintained at a constant level: 70 mmHg
[5]
  effect of addition together with noradrenaline on noradrenaline needed for vasoconstriction: much lower levels of noradrenaline
brain-dead body of a pig [4]; bolus of 2 mg at 21 hours
  effect of bolus on blood pressure: increase of the blood pressure
  time after which the effect of the bolus ceased: about 3 hours
[2]
  half-life time: about 1 hours

## CNCCCN1c2ccccc2CCc2ccc(Cl)cc21 [Norclomipramine]
[3]
  potency among typical NET inhibitors: highest
